Test results from ChEMBL document CHEMBL1139077, “Dopamine/serotonin receptor ligands. Part 15: Oxygenation of the benz-indolo-azecine LE 300 leads to novel subnanomolar dopamine D1/D5 antagonists” (Bioorg Med Chem Lett, 2007).
Activity calls are given as the source filed them. No cut-off for these calls is given here.

Legend:
D(3) dopamine receptor = D(3) dopamine receptor (Homo sapiens, UniProt P35462); assay: Binding affinity to human cloned dopamine D3 receptor expressed in CHO cells; assay type: cell-based
D(1B) dopamine receptor [1] = biological target: T1, D(1B) dopamine receptor (Homo sapiens, UniProt P21918); assay: Binding affinity to human cloned dopamine D5 receptor expressed in HEK 293 cells; assay type: cell-based, HEK293
D(1A) dopamine receptor [2] = biological target: T2, D(1A) dopamine receptor (Homo sapiens, UniProt P21728); assay: Displacement of [3H]SCH 23390 from human cloned dopamine D1 receptor expressed in HEK 293 cells; assay type: cell-based, HEK293
[3] = Binding affinity to human cloned dopamine D4.4 receptor expressed in CHO cells; assay type: cell-based
D(2) dopamine receptor [4] = biological target: T3, D(2) dopamine receptor (Homo sapiens, UniProt P14416); assay: Displacement of [3H]spiperone from human cloned dopamine D2L receptor expressed in CHO cells; assay type: cell-based
D(1B) dopamine receptor [5] = biological target: T1, D(1B) dopamine receptor; assay: Agonist activity at human dopamine D5 receptor assessed as increase in […] calcium concentration by calcium fluorescence assay; assay type: functional
D(1A) dopamine receptor [6] = biological target: T2, D(1A) dopamine receptor; assay: Agonist activity at human dopamine D1 receptor assessed as increase in […] calcium concentration by calcium fluorescence assay; assay type: functional
D(1B) dopamine receptor [7] = biological target: T1, D(1B) dopamine receptor; assay: Activity at human dopamine D5 receptor assessed as SKF 38393-induced suppression of calcium signal by calcium fluorescence assay; assay type: functional
D(2) dopamine receptor [8] = biological target: T3, D(2) dopamine receptor; assay: Agonist activity at human dopamine D2 receptor assessed as increase in […] calcium concentration by calcium fluorescence assay; assay type: functional
D(2) dopamine receptor [9] = biological target: T3, D(2) dopamine receptor; assay: Activity at human dopamine D2 receptor assessed as quinpirol-induced suppression of calcium signal by calcium fluorescence assay; assay type: functional

Chain of D(3) dopamine receptor (P35462 whole entry): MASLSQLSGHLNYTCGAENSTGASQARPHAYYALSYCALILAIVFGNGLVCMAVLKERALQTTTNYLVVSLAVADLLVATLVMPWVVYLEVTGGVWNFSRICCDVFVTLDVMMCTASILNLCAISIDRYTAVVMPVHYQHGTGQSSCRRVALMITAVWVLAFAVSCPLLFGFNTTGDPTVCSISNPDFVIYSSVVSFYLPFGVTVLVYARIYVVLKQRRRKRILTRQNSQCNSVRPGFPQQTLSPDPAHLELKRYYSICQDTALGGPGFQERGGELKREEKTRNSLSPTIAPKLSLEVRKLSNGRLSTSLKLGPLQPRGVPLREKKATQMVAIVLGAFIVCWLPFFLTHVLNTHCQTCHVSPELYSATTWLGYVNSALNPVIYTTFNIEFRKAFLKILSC
T2 sequence (P21728 whole entry): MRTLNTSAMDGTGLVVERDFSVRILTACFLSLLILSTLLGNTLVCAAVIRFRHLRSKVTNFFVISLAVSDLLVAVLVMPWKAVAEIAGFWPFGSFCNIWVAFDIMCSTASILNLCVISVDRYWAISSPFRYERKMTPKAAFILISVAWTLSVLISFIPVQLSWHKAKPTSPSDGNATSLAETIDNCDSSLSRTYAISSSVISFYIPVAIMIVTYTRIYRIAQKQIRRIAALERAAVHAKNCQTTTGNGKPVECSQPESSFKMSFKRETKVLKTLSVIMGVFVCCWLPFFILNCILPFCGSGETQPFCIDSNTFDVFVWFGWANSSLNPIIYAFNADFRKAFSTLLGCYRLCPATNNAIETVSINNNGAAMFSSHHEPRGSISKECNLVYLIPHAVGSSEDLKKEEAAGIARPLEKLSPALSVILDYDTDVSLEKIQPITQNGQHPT
T3 sequence (P14416 whole entry): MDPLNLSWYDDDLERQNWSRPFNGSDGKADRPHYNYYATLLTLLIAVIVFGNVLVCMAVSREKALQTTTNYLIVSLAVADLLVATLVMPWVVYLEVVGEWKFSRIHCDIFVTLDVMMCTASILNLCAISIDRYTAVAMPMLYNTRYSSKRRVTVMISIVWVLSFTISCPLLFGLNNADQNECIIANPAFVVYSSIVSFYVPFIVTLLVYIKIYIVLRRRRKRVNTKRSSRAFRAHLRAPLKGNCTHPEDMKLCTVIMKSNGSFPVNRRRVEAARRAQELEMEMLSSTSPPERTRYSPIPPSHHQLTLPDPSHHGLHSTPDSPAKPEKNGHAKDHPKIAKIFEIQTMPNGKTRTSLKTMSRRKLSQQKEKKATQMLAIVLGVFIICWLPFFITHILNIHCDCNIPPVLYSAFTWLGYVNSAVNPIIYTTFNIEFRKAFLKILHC
T1 sequence (P21918 whole entry): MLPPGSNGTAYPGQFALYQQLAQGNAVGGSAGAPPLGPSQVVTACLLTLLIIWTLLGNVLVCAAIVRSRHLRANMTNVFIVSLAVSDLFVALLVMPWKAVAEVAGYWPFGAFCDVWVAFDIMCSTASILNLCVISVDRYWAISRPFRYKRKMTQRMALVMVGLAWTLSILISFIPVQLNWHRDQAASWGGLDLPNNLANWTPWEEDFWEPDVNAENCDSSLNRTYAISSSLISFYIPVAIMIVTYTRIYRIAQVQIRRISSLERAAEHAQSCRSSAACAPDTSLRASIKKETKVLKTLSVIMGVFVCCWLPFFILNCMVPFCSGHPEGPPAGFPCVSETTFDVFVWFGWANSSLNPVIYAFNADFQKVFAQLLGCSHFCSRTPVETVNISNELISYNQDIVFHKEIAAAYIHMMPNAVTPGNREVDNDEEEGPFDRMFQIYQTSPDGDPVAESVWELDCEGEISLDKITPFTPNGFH

SMILES | Ki (D(3) dopamine receptor) | Ki (D(1B) dopamine receptor [1]) | Ki (D(1A) dopamine receptor [2]) | Ki (D(2) dopamine receptor [4]) | Activity (D(1B) dopamine receptor [5]) | Activity (D(1A) dopamine receptor [6]) | Activity (D(1B) dopamine receptor [7]) | Activity (D(2) dopamine receptor [8]) | Activity (D(2) dopamine receptor [9]) | Ki [3]
COc1ccc2c(c1)CCN(C)CCc1ccccc1C2 | – | 38.3 nM | – | – | – | – | – | – | – | 43.4 nM
COc1ccc2c(c1)CCN(C)CCc1c([nH]c3ccccc13)C2 | 1140 nM | 31.5 nM | 19 nM | 22.8 nM | – | – | – | – | – | 92.6 nM
COc1ccc2[nH]c3c(c2c1)CCN(C)CCc1ccccc1C3 | 475 nM | 3.6 nM | 0.82 nM | 11.9 nM | – | – | – | – | – | 266 nM
CN1CCc2ccccc2Cc2ccc(O)cc2CC1 | – | – | – | – | inactive | inactive | – | – | – | –
COc1ccc2c(c1)c1c(n2C)Cc2ccccc2CCN(C)CC1 | 3.78 nM | 0.23 nM | 2 nM | 1.7 nM | – | – | – | – | – | 21.6 nM

Second part, led by results:

Ki (D(3) dopamine receptor) | Ki (D(1B) dopamine receptor [1]) | Ki (D(1A) dopamine receptor [2]) | Ki (D(2) dopamine receptor [4]) | Activity (D(1B) dopamine receptor [5]) | Activity (D(1A) dopamine receptor [6]) | Activity (D(1B) dopamine receptor [7]) | Activity (D(2) dopamine receptor [8]) | Activity (D(2) dopamine receptor [9]) | SMILES | Ki [3]
2070 nM | 5.4 nM | 3.7 nM | 74.7 nM | – | – | – | – | – | CN1CCc2cc(O)ccc2Cc2[nH]c3ccccc3c2CC1 | 1360 nM
944 nM | 0.39 nM | 0.56 nM | 38.4 nM | – | – | – | – | – | CN1CCc2ccccc2Cc2[nH]c3ccc(O)cc3c2CC1 | 398 nM
40.3 nM | – | – | – | inactive | inactive | Active | inactive | Active | CN1CCc2ccccc2Cc2[nH]c3ccccc3c2CC1 | 109 nM
